Measured values as given in patent publication US10167261B2, “2-oxo-3,4-dihydroquinolin-6-yl sulphonamide CPDS and their use as plant growth regulators” (THE REGENTS OF THE UNIVERSITY OF CALIFORNIA, priority 2014, dated 2019).
Like-named read-outs stand apart in the source and are kept apart here.

How the values were obtained:
[1] = tested on: soybean plants (variety S20-G7); assay: Water use (WU) of soybean plants after foliar spray; assay type: in vivo; details: for Total % WU 0 to 2 DAA: cumulative; for change in vivo at 100 µM / change in vivo at 500 µM: Glycine max, vs negative control; for change in vivo at 100 µM / Total 0 to 2 DAA / change in vivo at 500 µM: foliar spray; for Total 0 to 2 DAA: cumulative WU vs negative control
Description: Chemicals were tested for their effect on reducing plant water use (WU) after being applied by foliar sprays onto soybean plants (variety S20-G7)—grown in controlled environment plant growth chambers. All chemicals were applied using an emulsifiable concentrate (EC) formulation that was diluted with water containing additional surfactant (EXTRAVON 1 g/20 L) to the indicated concentrations. Plant WU was assessed by multiple pot weighing processes before and after application of the chemicals at the indicated times (expressed in days after application (DAA)). The WU data before application was used to correct for differences in water use due to non-treatment effects (e.g. due to differences in plant size). The results are expressed compared to negative control treatment (water with EXTRAVON 1 g/20 L).
Application of the chemicals (0 DAA) takes place approximately between 8 to 9:30 a.m. […] The cumulative total WU (0-2 DAA) is calculated by summing the WU data mentioned above.

[2] = tested on: corn plants (variety NK OCTET); assay: Water use (WU) of corn plants after foliar spray; assay type: in vivo; details: foliar spray at 500 μM, vs negative control
PYR1-HAB1 = PYR1-HAB1 (Arabidopsis thaliana (Mouse-ear cress), UniProt O49686); assay: PP2C activity assay, PYR1-HAB1; assay type: biochemical; details: 100 nM PP2C, 200 nM PYR/PYL protein, 4-nitrophenyl phosphate substrate; read-out: IC50 of inhibition of PYR1-HAB1
PYR1-HAB1, sequence (O49686 whole entry, looked up): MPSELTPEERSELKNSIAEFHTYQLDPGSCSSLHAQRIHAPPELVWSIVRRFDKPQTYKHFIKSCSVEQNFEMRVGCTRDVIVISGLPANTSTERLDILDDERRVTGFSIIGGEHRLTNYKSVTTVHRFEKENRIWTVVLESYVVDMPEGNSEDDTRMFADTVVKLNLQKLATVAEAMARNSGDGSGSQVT
PYR1-HAB1, sequence (Q9CAJ0 whole entry partner, looked up): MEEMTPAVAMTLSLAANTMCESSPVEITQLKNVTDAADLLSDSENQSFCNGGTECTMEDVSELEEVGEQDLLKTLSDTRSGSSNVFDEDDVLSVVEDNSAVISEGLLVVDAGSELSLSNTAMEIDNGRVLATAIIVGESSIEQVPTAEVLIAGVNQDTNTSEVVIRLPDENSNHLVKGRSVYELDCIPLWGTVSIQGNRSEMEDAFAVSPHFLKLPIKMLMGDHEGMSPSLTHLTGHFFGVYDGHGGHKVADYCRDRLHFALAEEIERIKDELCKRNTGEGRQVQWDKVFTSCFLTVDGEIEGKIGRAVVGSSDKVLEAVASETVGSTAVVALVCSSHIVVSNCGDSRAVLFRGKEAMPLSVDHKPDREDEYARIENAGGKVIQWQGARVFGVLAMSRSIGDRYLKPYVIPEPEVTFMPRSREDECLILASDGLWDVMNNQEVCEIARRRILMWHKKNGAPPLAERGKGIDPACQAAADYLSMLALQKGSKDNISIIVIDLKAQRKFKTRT
Excerpt: (§1) The protein HAB1, a type 2 protein phosphatase (PP2C), is inhibited by PYR/PYL proteins in dependence of abscisic acid or other receptor agonists. The potency of a receptor agonists correlates with the level of inhibition of the PP2C, and therefore the IC50 (PYR1-HAB1) can be used to compare the relative activity of different chemical analogues. Since inhibition of PP2C correlates to inhibition of seed-germination and increase in plant water-use efficiency, it serves as a powerful tool to quantify biological potential of a chemical acting as an analogue of abscisic acid.
(§2) HAB1 and PYL proteins were expressed and purified as described in Park et al. ((2009) Science 324(5930):1068-1071), with minor modifications. To obtain GST-HAB1, the HAB1 cDNA was cloned into pGex-2T. Expression was conducted in BL21[DE3]pLysS host cells. Transformed cells were pre-cultured overnight, transferred to LB medium and cultured at 30° C. to culture A600 of ˜0.5.
(§3) The culture was then cooled on ice and MnCl2 added to 4 mM and IPTG added to 0.3 mM. After 16 hours incubation at 15° C., cells were harvested and recombinant proteins were purified on glutathione agarose as described in Park et al. To obtain 6×His-PYL receptor fusion proteins, expression constructs previously described by Okamoto et al. 2013, (PNAS 110(29): 12132-12137) were used. ABA receptors were expressed and purified as described above.
(§4) For the values shown in Table B5, PP2C activity assays using recombinant receptors and PP2Cs were carried out as follows: purified proteins were pre-incubated in 160 μl assay buffer containing 100 mM Tris-HCl-pH7.9, 100 mM NaCl, 3 μg bovine serum albumin, 0.1% 2-mercaptoethanol, 1 mM MnCl2 with ABA or agonists (compounds of the present invention) for 30 minutes at room temperature. Reactions were started by adding 40 μL of a reaction solution containing 25 mM 4-nitrophenyl phosphate in assay buffer after which absorbance measurements were immediately collected using a 405 nm on Wallac plate reader. Reactions contained 100 nM PP2C and 200 nM PYR/PYL proteins. […] For inferring IC50 values, calculations from receptor/PP2C assays containing different concentrations (ranging from 1 μM to 4 nM) were. The obtained dose response data was fit to a log (inhibitor) versus response-(variable slope) model using non-linear regression to infer the IC50s, using Graph Pad Prism 6.0.

PYL2-HAB1 = PYL2-HAB1 (Arabidopsis thaliana (Mouse-ear cress), UniProt O80992); assay: PP2C activity assay, PYL2-HAB1; assay type: biochemical; details: 100 nM PP2C, 200 nM PYR/PYL protein, 4-nitrophenyl phosphate substrate; read-out: IC50 of inhibition of PYL2-HAB1
PYL2-HAB1, sequence (O80992 whole entry, looked up): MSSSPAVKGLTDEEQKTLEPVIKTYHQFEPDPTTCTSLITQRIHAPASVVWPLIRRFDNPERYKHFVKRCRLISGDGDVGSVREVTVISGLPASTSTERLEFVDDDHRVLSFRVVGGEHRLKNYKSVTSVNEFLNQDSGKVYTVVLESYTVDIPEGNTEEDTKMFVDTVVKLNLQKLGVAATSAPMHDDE
PYL2-HAB1, sequence (Q9CAJ0 whole entry partner, looked up): as the sequence (Q9CAJ0 whole entry partner, looked up) above
Excerpt: as §1, §2, §3, §4

[3] = tested on: corn plants (variety NK OCTET); assay: Water use (WU) of corn plants after foliar spray; assay type: in vivo; details: foliar spray at 500 μM, vs negative control; for Total % WU 0 to 2 DAA: cumulative
Description: Compounds were tested for their effect on reducing plant water use as follows. The compounds were applied by foliar spray to 12 day old corn plants (variety NK OCTET) grown in controlled environment plant growth chambers. All compounds were applied using an emulsifiable concentrate (EC) formulation that was diluted to the desired concentrations with water containing 0.4% of the adjuvant rape seed methyl ester. Plant water use during the day was assessed by repeated weighing of the pots in which the plants were grown before and after application of the compounds at the indicated times (expressed in days after application (DAA)). The water use data before application was used to correct any differences in water use arising due to non-treatment effects (e.g. due to differences in plant size). The untransformed water use values were subjected to an analysis of covariance, fitting the effect of treatment and using the baseline water use 1 day before application as a covariate. Application of the chemicals (0 DAA) takes place approximately between 8 to 9:30 a.m. WU is measured within day time (chamber light is on 6:00 to 20:00) at these timepoints: 0 DAA AM (10:30-12:50) and 0 DAA PM (14:00-19:50), 1 DAA AM (7:30-12:50) and 1 DAA PM (14:00-19:50) and 2 DAA AM (7:30-12:50). The cumulative total WU (0-2 DAA) is calculated by summing the WU data mentioned above.

[4] = repeated experiment (Table B2), rate not given
[5] = 0 h, application rate 100 μM, read-out: % WU 0 DAA AM
[6] = 0 h, application rate 100 μM, read-out: % WU 0 DAA PM
[7] = 24 h, application rate 100 μM, read-out: % WU 1 DAA AM
[8] = 24 h, application rate 100 μM, read-out: % WU 1 DAA PM
[9] = 48 h, application rate 100 μM, read-out: % WU 2 DAA AM

| SMILES | % WU 2 DAA PM [1, 4] [%] | Total % WU 0 to 2 DAA [1, 4] [%] | % WU 2 DAA PM [2] [%] | IC50 (PYR1-HAB1) [nM] | IC50 (PYL2-HAB1) [nM] | Total % WU 0 to 2 DAA [3] [%] | % WU 0 DAA AM [3] [%] | % WU 0 DAA PM [3] [%] | % WU 1 DAA AM [3] [%] | % WU 1 DAA PM [3] [%] | % WU 2 DAA AM [3] [%] | further results |
| --- | --- | --- | --- | --- | --- | --- | --- | --- | --- | --- | --- | --- |
| CCCN1C(=O)CCc2cc(NS(=O)(=O)Cc3ccc(C4CC4)cc3)ccc21 [Compound 1.004, 1-(4-cyclopropylphenyl)-N-(2-oxo-1-propyl-3,4-dihydroquinolin-6-yl)methanesulfonamide] | −12.9 | −25 | −10.2 | 51 | 177 | −11.8 | −17.9 | −12.4 | −12.4 | −12.1 | −9.8 |  |
| CCN1C(=O)CCc2cc(NS(=O)(=O)Cc3ccc(C4CC4)cc3)cc(F)c21 [Compound 1.213, 1-(4-cyclopropylphenyl)-N-(1-ethyl-8-fluoro-2-oxo-3,4-dihydroquinolin-6-yl)methanesulfonamide] | −38.7 | −45.8 | −7 | 21 | 244 | −11.4 | −18.2 | −15.5 | −13.4 | −11.2 | −7.9 |  |
| CCCN1C(=O)CC(C)c2cc(NS(=O)(=O)Cc3ccc(C4CC4)cc3)ccc21 (stereo not drawn) [Compound 1.179] |  |  |  | 82 | 64 |  |  |  |  |  |  |  |
| CCCN1C(=O)CCc2cc(NS(=O)(=O)Cc3ccc(C4CCCC4)cc3)ccc21 [Compound 9.004, 1-(4-cyclopentylphenyl)-N-(2-oxo-1-propyl-3,4-dihydroquinolin-6-yl)methanesulfonamide] | 0.5 | −1.4 |  | 97 | > 1000 |  |  |  |  |  |  |  |
| CCCN1C(=O)CCc2cc(NS(=O)(=O)Cc3ccc(C4CC4)cc3)ccc21 [drawing 26] |  |  |  |  |  |  |  |  |  |  |  | change in vivo at 100 µM [1, 5]: -0.8%; change in vivo at 100 µM [1, 6]: -3.8%; change in vivo at 100 µM [1, 7]: -3%; change in vivo at 100 µM [1, 8]: -2.8%; change in vivo at 100 µM [1, 9]: -5.2%; Total 0 to 2 DAA ([1]; application rate 100 μM): −3.8% |
| CCCN1C(=O)CCc2cc(NS(=O)(=O)Cc3ccc(C4CC4)cc3)cc(Cl)c21 [Compound 1.025, N-(8-chloro-2-oxo-1-propyl-3,4-dihydroquinolin-6-yl)-1-(4-cyclopropylphenyl)methanesulfonamide] | −13.6 | −22.1 |  | 83 | 114 |  |  |  |  |  |  |  |
| CCCN1C(=O)CCc2cc(NS(=O)(=O)Cc3ccc(C4CCC4)cc3)ccc21 [Compound 5.004, 1-(4-cyclobutylphenyl)-N-(2-oxo-1-propyl-3,4-dihydroquinolin-6-yl)methanesulfonamide] | 3.9 | −3 | −2.3 |  |  | −4.9 | −8.9 | −8.8 | −5.6 | −5.9 | −1.7 |  |
| CCCN1C(=O)CCc2cc(NS(=O)(=O)Cc3ccc(C)cc3)ccc21 [Quinabactin, quinabactin, reference compound] | −11 | −16 |  | 104 | 262 |  |  |  |  |  |  | % WU 0 DAA AM [1, 4]: −22%; % WU 0 DAA PM [1, 4]: −23%; % WU 1 DAA AM [1, 4]: −17%; % WU 1 DAA PM [1, 4]: −15%; % WU 2 DAA AM [1, 4]: −12% |
| CCCN1C(=O)CCc2cc(NS(=O)(=O)Cc3ccc(C4CC4)cc3)ccc21 [drawing 27] |  |  |  |  |  |  |  |  |  |  |  | change in vivo at 500 µM ([1]; 0 h, application rate 500 μM, read-out: % WU 0 DAA AM): -8.8%; change in vivo at 500 µM ([1]; 0 h, application rate 500 μM, read-out: % WU 0 DAA PM): -10.7%; change in vivo at 500 µM ([1]; 24 h, application rate 500 μM, read-out: % WU 1 DAA AM): -9.4%; change in vivo at 500 µM ([1]; 24 h, application rate 500 μM, read-out: % WU 1 DAA PM): -6.4%; change in vivo at 500 µM ([1]; 48 h, application rate 500 μM, read-out: % WU 2 DAA AM): -6.1%; Total 0 to 2 DAA ([1]; application rate 500 μM): −8.9% |
| CCCN1C(=O)CCc2cc(NS(=O)(=O)Cc3ccc(C4CC(=O)C4(C)C)cc3)ccc21 (stereo not drawn) [Compound 8.004, 1-[4-(2,2-dimethyl-3-oxo-cyclobutyl)phenyl]-N-(2-oxo-1-propyl-3,4-dihydroquinolin-6-yl)methanesulfonamide] | 1 | −0.7 |  |  |  |  |  |  |  |  |  |  |
| CCCN1C(=O)CCc2cc(NS(=O)(=O)Cc3ccc(C)cc3)ccc21 [drawing 25, reference compound] |  |  |  |  |  |  |  |  |  |  |  | change in vivo at 100 µM [1, 5]: -1.3%; change in vivo at 100 µM [1, 6]: -0.7%; change in vivo at 100 µM [1, 7]: -2.2%; change in vivo at 100 µM [1, 8]: -0.2%; change in vivo at 100 µM [1, 9]: -3.4%; Total 0 to 2 DAA ([1]; application rate 100 μM): −2.0% |
| CCCN1C(=O)CCc2cc(NS(=O)(=O)Cc3ccc(C4CC4)cc3)cc(F)c21 [Compound 1.214, 1-(4-cyclopropylphenyl)-N-(8-fluoro-2-oxo-1-propyl-3,4-dihydroquinolin-6-yl)methanesulfonamide] |  |  |  | 28 | 130 |  |  |  |  |  |  |  |
| CCN1C(=O)CC(C)c2cc(NS(=O)(=O)Cc3ccc(C4CC4)cc3)ccc21 (stereo not drawn) [Compound 1.178, 1-(4-cyclopropylphenyl)-N-(1-ethyl-4-methyl-2-oxo-3,4-dihydroquinolin-6-yl)methanesulfonamide] | −36.5 | −45.4 | −5.8 |  |  | −9.7 | −18.5 | −13 | −11.2 | −9.2 | −6.5 |  |
